According to publication PMC11648675 (Cell, 2024):
Where a SMILES comes first, the peptide text is derived from it. The star is where a group is joined. CH2Cl = ClC*

Assays:
EMT6 cells = test: cell death of EMT6 cells in vitro; format: cell-based, mouse; conditions: for cell death at concentration used for vaccination: 60 μM; for LDH release: WT EMT6 cells; for potency at killing WT EMT6 cells: cell-titer Glo assay, in vitro
[1] = system: Human GSDMD-GFP-expressing B16 cells; test: pyroptosis of B16-GSDMD-GFP cells in vitro by PI uptake; format: cell-based, mouse; conditions: 10 μM DMB
[2] = system: GSDMD knockout (KO) THP-1 cells; test: cell death of GSDMD KO THP-1 cells by PI uptake; format: cell-based, human; conditions: 5 or 20 μM
[3] = toxicity readouts in treated tumor-bearing mice; format: in vivo, mouse
[4] = system: Gsdmd−/− and Gsdmd−/−Gsdme−/− EMT6 tumors; test: orthotopic gasdermin-KO EMT6 tumors in BALB/c mice; format: in vivo, mouse; conditions: 10 mg/kg weekly
recombinant caspase-1 = recombinant caspase-1 (Homo sapiens, UniProt P29466); test: Caspase-1 activity assay; format: biochemical; conditions: in vitro, DMB 10 μM, Z-YVAD-AFC substrate
recombinant caspase-1, sequence (P29466 120-297 limits assumed, species assumed): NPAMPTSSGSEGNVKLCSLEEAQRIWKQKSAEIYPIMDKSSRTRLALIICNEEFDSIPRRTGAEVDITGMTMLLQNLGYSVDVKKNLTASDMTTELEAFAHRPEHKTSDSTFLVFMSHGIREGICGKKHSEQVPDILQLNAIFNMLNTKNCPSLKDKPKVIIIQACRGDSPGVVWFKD
recombinant caspase-1, sequence (P29466 317-404 limits assumed, species assumed): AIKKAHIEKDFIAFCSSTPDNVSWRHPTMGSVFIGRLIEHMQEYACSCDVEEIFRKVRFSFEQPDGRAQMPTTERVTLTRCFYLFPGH

[5] = system: B16 cells that expressed GFP; test: subcutaneous B16-GFP tumors in syngeneic mice; format: in vivo, mouse; conditions: 10 mg/kg every 3 days x6
THP-1 cells = test: cell death of WT THP-1 cells by PI uptake; format: cell-based, human
EMT6 tumors in NSG mice = test: EMT6 tumors in NSG mice; format: in vivo, mouse; conditions: NSG mice lacking functional lymphocytes
C38A GSDMD = C38A GSDMD (Homo sapiens, UniProt P57764, C38A); test: liposome leakage assay with C38A GSDMD; format: biochemical; conditions: read-out: EC50 for activating GSDMD pore formation
C38A GSDMD, sequence (P57764 whole entry C38A): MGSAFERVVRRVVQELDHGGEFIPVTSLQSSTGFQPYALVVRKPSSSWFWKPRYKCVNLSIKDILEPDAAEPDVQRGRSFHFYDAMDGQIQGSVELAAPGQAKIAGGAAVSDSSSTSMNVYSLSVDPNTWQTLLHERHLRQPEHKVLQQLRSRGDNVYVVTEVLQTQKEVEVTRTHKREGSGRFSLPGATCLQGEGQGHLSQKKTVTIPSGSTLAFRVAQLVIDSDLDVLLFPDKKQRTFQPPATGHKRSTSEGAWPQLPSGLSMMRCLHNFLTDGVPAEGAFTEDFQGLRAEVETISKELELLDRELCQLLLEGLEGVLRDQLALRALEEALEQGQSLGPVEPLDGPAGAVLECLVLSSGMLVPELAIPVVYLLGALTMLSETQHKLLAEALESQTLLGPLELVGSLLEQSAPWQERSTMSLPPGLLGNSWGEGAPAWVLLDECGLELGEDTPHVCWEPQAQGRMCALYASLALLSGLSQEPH

Human GSDMD [6] = target: T1, Human GSDMD (Homo sapiens, UniProt P57764); test: time-resolved fluorogenic; format: biochemical; conditions: read-out: EC50 of liposome leakage; human GSDMD 0.3 μM, Tb3+/DPA fluorescence
T1 sequence (P57764 whole entry): as the sequence (P57764 whole entry C38A) above, with A38C counted along it

EMT6 tumor challenge = test: vaccination with drug-treated EMT6 cells and EMT6 challenge; format: in vivo, mouse; conditions: for mice remaining tumor-free after challenge: immunization with drug-treated EMT6 cells, challenge 8 days later
[7] = system: primary mouse bone-marrow-derived macrophages (BMDMs); test: cell death of primary mouse BMDMs; format: cell-based; conditions: WT and GSDMD KO primary BMDMs
[8] = system: GSDMD KO THP-1 cells reconstituted with WT or D275A GSDMD; test: PI uptake in GSDMD KO THP-1 cells reconstituted with WT or D275A GSDMD; format: cell-based, human; conditions: 5 or 20 μM, 1, 2 and 4 h
[9] = target: mCherry-tagged full-length GSDMD (Homo sapiens, UniProt P57764); test: membrane localization of mCherry-tagged full-length GSDMD in HEK293T cells; format: cell-based; conditions: increasing concentrations of DMB
mCherry-tagged full-length GSDMD, sequence (P57764 whole entry): as the sequence (P57764 whole entry C38A) above, with A38C counted along it

NLRP3 = NLRP3 activation in LPS-primed THP-1 cells; format: cell-based, human; conditions: treatment after LPS priming
CT26 colorectal cancer = test: subcutaneous CT26 tumors in syngeneic mice; format: in vivo, mouse; conditions: 10 mg/kg
[10] = system: immortalized mouse BMDMs (iBMDMs); test: cell death of immortalized mouse BMDMs; format: cell-based; conditions: WT iBMDMs, 5 and 20 μM; not affected by caspase-1/11 ablation
[11] = target: GSDMD (YFP at N terminus, RLuc at C terminus) (Homo sapiens, UniProt P57764); test: BRET assay of GSDMD NT-CT distance; format: cell-based
GSDMD (YFP at N terminus, RLuc at C terminus), sequence (P57764 whole entry): as the sequence (P57764 whole entry C38A) above, with A38C counted along it

4T1E tumors = test: orthotopic 4T1E tumors in BALB/c mice, DMB and anti-PD-1; format: in vivo, mouse; conditions: DMB 1 mg/kg weekly; anti-PD-1 every 2 days
mouse GSDMD = test: liposome leakage assay with mouse GSDMD; format: biochemical
C191A GSDMD = C191A GSDMD (Homo sapiens, UniProt P57764, C191A); test: liposome leakage assay with C191A GSDMD; format: biochemical
C191A GSDMD, sequence (P57764 whole entry C191A): as the sequence (P57764 whole entry C38A) above, with A38C, C191A counted along it

[12] = system: KP lung adenocarcinoma tumors; test: subcutaneous KP tumors in WT and Gsdmd−/− C57BL/6 mice; format: in vivo, mouse
[13] = system: human peripheral blood mononuclear cells (PBMCs); test: cell death of human PBMCs; format: cell-based
[14] = system: full-length GSDMD in HEK293T cells; test: activation of full-length GSDMD in transfected HEK293T cells; format: cell-based, human
[15] = system: human GSDMA, GSDMB, GSDMC, GSDME; test: liposome leakage assay with other human gasdermins; format: biochemical; conditions: gasdermins 0.3 μM
WT EMT6 tumors = test: orthotopic WT EMT6 tumors in BALB/c mice; format: in vivo, mouse
Human GSDMD [16] = target: T1, Human GSDMD; test: microscale thermophoresis; format: binding; conditions: read-out: dissociation constant (KD) by MST; Alexa 647-labeled GSDMD
[17] = system: B16 cells expressing human GSDMD-GFP
[18] = 10 mg/kg i.p. every 3 days x6 from day 5

CC(=O)N[C@@H](Cc1ccccc1)C(=O)N[C@@H](CC(C)C)C(=O)N[C@H](C(=O)N[C@@H](CC(=O)O)C(=O)CCl)[C@@H](C)O [AC-FLTD-CMK] (Ac-FLTD-CH2Cl)
effect of caspase inhibition on DMB-induced SYTOX Green uptake (EMT6 cells; EMT6 cells): did not affect DMB-induced pyroptosis

CC(C)(C)Nc1nc2cc(Cl)c(Cl)cc2nc1S(C)(=O)=O [DMB, 6,7-dichloro-2-methylsulfonyl-3-N-tert-butylaminoquinoxaline]
sensitivity to DMB-induced pyroptosis by PI uptake [1]: became sensitive to DMB-induced pyroptosis
cell death by PI uptake [2]: minimally
mouse body weight ([3]; B16 tumor-bearing mice, 10 mg/kg every 3 days x6): no effect
blood counts ([3]; EMT6-bearing mice, 10 mg/kg): normal blood counts
tumor growth ([4]; Gsdmd−/− EMT6): not significantly reduced
tumor growth ([4]; Gsdmd−/−Gsdme−/− EMT6): not significantly reduced
effect on recombinant caspase-1 activity (recombinant caspase-1): neither inhibited nor activated
tumor growth [5]: no significant effect
cell death by PI uptake (THP-1 cells; WT THP-1 cells, 5 or 20 μM): induced significant cell death within 2 h
EC50 (THP-1 cells; read-out: EC50 of DMB-mediated cell death, WT THP-1, PI positivity at 4 h): 4800 ± 400 nM
tumor growth (EMT6 tumors in NSG mice): did not suppress the growth
EC50 (C38A GSDMD): ~900 nM
ATP release into supernatants (EMT6 cells; EMT6 cells): peaked 2 and 3 h
cell death at concentration used for vaccination (EMT6 cells; EMT6 cells, 5 h): 60–70%
LDH release (EMT6 cells): beginning within an hour of treatment
potency at killing WT EMT6 cells (EMT6 cells): similarly potent
EC50 (Human GSDMD [6]): 700 nM
tumor size, times smaller than in mice immunized with MMC-treated cells (EMT6 tumor challenge; immunization with DMB-treated EMT6 cells): 6 times
mice remaining tumor-free after challenge (EMT6 tumor challenge): Three of 12
GSDMD dependence of cell death induction [7]: depended on GSDMD
cell death by PI uptake, WT vs D275A GSDMD rescue [8]: comparable cell death
membrane localization of mCherry-tagged full-length GSDMD [9]: up to 88%
NLRP3 activation (ASC speck formation, IL-1β release) (NLRP3): did not significantly activate NLRP3
tumor growth (CT26 colorectal cancer): A similar reduction in tumor growth
cell death [10]: triggered cell death
BRET signal compared with DMSO control [11]: decreased the BRET signal
tumor growth / tumor volume vs vehicle (4T1E tumors): does not inhibit tumor growth on its own
fold reduced efficacy on mouse GSDMD vs human GSDMD (mouse GSDMD): ~ 5 fold
activation of GSDMD pore formation (C191A GSDMD): not activated
tumor growth [12]: similarly inhibited
induction of PI positivity, LDH release, ATP release [13]: robustly induced
activation of C191R and C191F full-length GSDMD mutants [14]: could not be activated
activation of other human gasdermins [15]: activated human GSDMD but not other human gasdermins
tumor growth (WT EMT6 tumors; 10 mg/kg weekly for 2 weeks, WT EMT6): significantly suppressed
GzmB/PFN expression and stimulated IFN-γ/TNF-α production of CD8+ and NK TILs (WT EMT6 tumors; 10 mg/kg weekly, WT EMT6 tumors): significantly increased
Kd (Human GSDMD [16]): 1100 ± 400 nM
surviving mice cured with no palpable tumor [17, 18]: 3
tumor growth [17, 18]: strongly inhibited tumor growth
mice surviving to the end of the experiment ([17]; 10 mg/kg i.p. every 3 days x6 from day 5, clones 9 and 10): 5 of 16
T cells per tumor area, DMB vs. vehicle ([17]; CD3+ CD8+ immunofluorescence): 8.3 fold
DCs per tumor area, DMB vs. vehicle ([17]; MHCII+ CD11c+ immunofluorescence): 25.2 fold
survival of mice bearing smaller tumors, delayed treatment ([17]; treatment from day 10, every 3 days x6): two of the four

CO[C@@]12[C@H](COC(N)=O)C3=C(C(=O)C(C)=C(N)C3=O)N1C[C@@H]1N[C@@H]12 [MMC, mitomycin C]
ATP release into supernatants (EMT6 cells; EMT6 cells): did not trigger ATP release
cell death at concentration used for vaccination (EMT6 cells; EMT6 cells, 20 h): 60–70%
LDH release (EMT6 cells): much less and delayed LDH release
potency at killing WT EMT6 cells (EMT6 cells): similarly potent
mice remaining tumor-free after challenge (EMT6 tumor challenge): tumors grew in all the mice

CCN(CC)C(=S)SSC(=S)N(CC)CC [disulfiram, reference compound]
effect of pretreatment on DMB-induced cell death ([13]; pretreatment before DMB): strongly suppressed cell death
